Measurements published in ChEMBL document CHEMBL1201862, “PubChem BioAssay data set” (2004).
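The compound was tested at five concentrations on cells cultured in 96-well plates, with a 48-hour exposure period. GI50 marks 50% less growth.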 The source made the active and inactive calls. Rule as the data show it: active = GI50 up to about 1.1 µM and inactive = higher.

Assays:
Assay in all cases: NCI anticancer screen, dose series, 48 h
SK-MEL-2 = tested on: SK-MEL-2
OVCAR-4 = tested on: OVCAR-4
MDA-N = tested on: MDA-N
NCI/ADR-RES = tested on: NCI/ADR-RES
NCI-H23 = tested on: NCI-H23
SF-268 = tested on: SF-268
ACHN = tested on: ACHN
SK-MEL-28 = tested on: SK-MEL-28
NCI-H522 = tested on: NCI-H522
SNB-19 = tested on: SNB-19
T47D = tested on: T47D
SF-295 = tested on: SF-295
MDA-MB-231 = tested on: MDA-MB-231
U-251 = tested on: U-251
UACC-62 = tested on: UACC-62
OVCAR-8 = tested on: OVCAR-8
PC-3 = tested on: PC-3
IGROV-1 = tested on: IGROV-1
SNB-75 = tested on: SNB-75
HL-60 = tested on: HL-60

Compound	GI50 (SK-MEL-2)	GI50 (OVCAR-4)	GI50 (MDA-N)	GI50 (NCI/ADR-RES)	GI50 (NCI-H23)	GI50 (SF-268)	GI50 (ACHN)	GI50 (SK-MEL-28)	GI50 (NCI-H522)	GI50 (SNB-19)	GI50 (T47D)	GI50 (SF-295)	GI50 (MDA-MB-231)	GI50 (U-251)	GI50 (UACC-62)	GI50 (OVCAR-8)	GI50 (PC-3)	GI50 (IGROV-1)	GI50 (SNB-75)	GI50 (HL-60)
COC(=O)c1ccc2cc(O)ccc2c1	> 100 µM (inactive)	> 100 µM (inactive)	78.9 µM (inactive)	47.9 µM (inactive)	72.3 µM (inactive)	21.5 µM (inactive)	76.6 µM (inactive)	> 100 µM (inactive)	58.6 µM (inactive)	79.8 µM (inactive)	56.4 µM (inactive)	53.5 µM (inactive)	> 100 µM (inactive)	87.7 µM (inactive)	> 100 µM (inactive)	53.2 µM (inactive)	> 100 µM (inactive)	75.7 µM (inactive)		
CO[C@](C(=O)OC[C@H]1[C@@H](COC(C)=O)[C@@H]2O[C@H]1c1cc3c(cc12)OCO3)(c1ccccc1)C(F)(F)F	28.6 µM (inactive)	40.4 µM (inactive)	38.3 µM (inactive)		19.1 µM (inactive)	30.7 µM (inactive)		41.3 µM (inactive)	4.26 µM (inactive)	50.4 µM (inactive)		18 µM (inactive)	30.8 µM (inactive)	36.5 µM (inactive)	19.6 µM (inactive)		19.4 µM (inactive)	12.7 µM (inactive)	20.4 µM (inactive)	
COc1cccc(NC(=O)C(=O)C(C(=O)c2ccccc2F)C2OC(=O)c3ccccc32)c1 (stereo not drawn)	22.5 µM (inactive)	36.4 µM (inactive)			29.6 µM (inactive)	30.5 µM (inactive)	45.1 µM (inactive)	58.6 µM (inactive)	16.1 µM (inactive)	24.9 µM (inactive)		37.7 µM (inactive)		15.5 µM (inactive)	26 µM (inactive)	21.8 µM (inactive)		56.6 µM (inactive)	24.9 µM (inactive)	20.7 µM (inactive)
COc1cc(S(=O)(=O)Nc2ccc(-c3csc(N4C(=O)C(Cl)C4c4ccccc4)n3)cc2)ccc1Cl (stereo not drawn)	> 100 µM (inactive)	52.6 µM (inactive)	37.5 µM (inactive)	> 100 µM (inactive)	25.6 µM (inactive)	33.9 µM (inactive)	60 µM (inactive)	66.5 µM (inactive)	3.14 µM (inactive)	> 100 µM (inactive)	28.4 µM (inactive)	> 100 µM (inactive)			22.9 µM (inactive)	20.1 µM (inactive)	> 100 µM (inactive)	4.63 µM (inactive)	22.8 µM (inactive)	54.6 µM (inactive)
CC/C(=C\c1ccc(OC)cc1)c1ccc(OC)cc1	65.6 µM (inactive)	> 100 µM (inactive)	> 100 µM (inactive)	> 100 µM (inactive)	86.3 µM (inactive)	> 100 µM (inactive)	> 100 µM (inactive)		> 100 µM (inactive)	> 100 µM (inactive)		53.3 µM (inactive)	> 100 µM (inactive)	> 100 µM (inactive)	> 100 µM (inactive)	> 100 µM (inactive)	> 100 µM (inactive)	> 100 µM (inactive)	> 100 µM (inactive)	
CCC(C)(C)NC1=C(NC(C)=O)C(=O)c2ccccc2C1=O	21 µM (inactive)	> 75 µM (inactive)			18.9 µM (inactive)	> 75 µM (inactive)	15.2 µM (inactive)	61.5 µM (inactive)	10.2 µM (inactive)	> 75 µM (inactive)		> 75 µM (inactive)		36.1 µM (inactive)	24.9 µM (inactive)	54.8 µM (inactive)		> 75 µM (inactive)	> 75 µM (inactive)	16.7 µM (inactive)
CCOC(=O)CCn1[nH]c(=O)c(Cl)c(Cl)c1=O	> 100 µM (inactive)	> 100 µM (inactive)			> 100 µM (inactive)	> 100 µM (inactive)	> 100 µM (inactive)	> 100 µM (inactive)	> 100 µM (inactive)	> 100 µM (inactive)		> 100 µM (inactive)		> 100 µM (inactive)	> 100 µM (inactive)	> 100 µM (inactive)		> 100 µM (inactive)	> 100 µM (inactive)	> 100 µM (inactive)
COC(=O)/C=C\C1C(C(=O)OC)C2(C(=O)OC)CCC1(C(=O)OC)N2 (stereo not drawn)	15.5 µM (inactive)	19.1 µM (inactive)			18.7 µM (inactive)	23.8 µM (inactive)	9.33 µM (inactive)	13.6 µM (inactive)	0.681 µM (active)	15.8 µM (inactive)		23.4 µM (inactive)		18.5 µM (inactive)	15.9 µM (inactive)	7.19 µM (inactive)		26.9 µM (inactive)	18.5 µM (inactive)	2.51 µM (inactive)
